Assay results as given in patent US8232253B2, “Treatment of lung cancer” (Ramot at Tel-Aviv University Ltd., priority 2006, dated 2012).

Legend:
[1] = tested on: human lung cancer cell lines A549, H23, HTB54, H-1299, HTB-58 (SK-MES-1); test: Growth inhibition of human lung cancer cell lines by direct cell counting; format: cell-based; details: range over A549, H23, HTB54, H-1299, HTB-58 (SK-MES-1), read-out: IC50 of growth inhibition, depending on the cell line
Procedure: FTS was provided by Concordia Pharmaceuticals, Inc. (Ft. Lauderdale, Fla.). All cell lines were obtained from American Type Culture Collection (“ATCC”) (Manassas, Va.). A549 cells, non-small-cell lung carcinoma (CCL, ATCC) cells, were cultured in Kaighn's modification of Ham's F-12 medium containing 1.5 g/l sodium bicarbonate, 10% fetal calf serum (FCS), 100 U/ml penicillin, and 100 μg/ml streptomycin. HTB54 lung carcinoma cells were cultured in McCoy's 5A medium with 10% FCS, 100 U/ml penicillin, and 10 μg/ml streptomycin. HTB-58 (SK-MES-1, ATCC), a human lung squamous cell carcinoma cell line, was cultured in Eagle's minimum essential medium with 2 mM L-glutamine and Earle's BSS, 1.5 g/l sodium bicarbonate, 0.1 mM non-essential amino acids, 1 mM sodium pyruvate, 10% FCS, 100 U/ml penicillin, and 100 μg/ml streptomycin. […] Cells were treated with the indicated concentrations of FTS (Concordia Pharmaceuticals, Sunrise Fla.) or with 0.1% Me2SO4 (DMSO) (vehicle) 24 h after plating and were counted 5 days later. Dead cells were counted after addition of Hoechst 33258 dye (Sigma-Aldrich, St. Louis, Mo.); 1 μg/ml) to vehicle-treated control cultures or to cultures treated for 24 or 48 h with 75 μM FTS. Fluorescence images were collected 5 min after the dye was added. […]

[2] = tested on: A549 cells; test: A549-cell-implanted nude mouse model, tumor growth; format: in vivo, nude mice
Procedure: Nude mice (6 weeks old) were housed in barrier facilities on a 12-h light/dark cycle. Food and water were supplied ad libitum. On day zero, A549 or HTB-58 cells (5×10^6 cells in 0.1 ml PBS) were implanted subcutaneously (s.c.) just above the right femoral joint. After 5 or 11 days the mice were separated randomly into control groups that had received only the vehicle and FTS-treated groups. Daily FTS treatments were administered either intraperitoneally (i.p.) or orally. Tumor volumes or weights were determined as described in Barkan, B., Starinsky, S., Friedman, E., Stein, R., Kloog, Y., Clin Cancer Res 12:5533-42 (2006). Gemcitabine treatment (36 mg/kg, i.p.) was administered every 4 days.
To determine whether FTS inhibited tumor growth in vivo, experiments were conducted using a nude mouse model. The lung cancer cells were implanted s.c. above the right femoral joint and the mice were then treated with FTS. In a first experiment, the effect of i.p. administration of FTS on tumor growth in A549 cells was assessed. Treatment was started 5 days after cell implantation, by which time the tumors were palpable. Tumor volumes were determined 24 days after implantation in two groups of mice (n=8) that had received daily i.p. administration of either the vehicle (control) or 10 mg/kg FTS.
In an additional set of experiments, the A549-cell-implanted nude mouse model was used to examine the effect of orally administered FTS on tumor growth. First, cells were implanted as described above and daily oral treatment with FTS (50 mg/kg; n=6) or vehicle (n=5) was started either 11 days (FIG. 14C) or 6 days (FIG. 14D) after implantation. […] Next, the effects of orally administered FTS, alone or in combination with gemcitabine, on A549-cell tumor growth was examined (FIG. 14D). Six days after cell implantation, mice were divided into four groups (n=8 per group) and treated orally with vehicle alone (control), FTS alone (60 mg/kg), vehicle and gemcitabine (36 mg/kg, i.p. every 4 days), or FTS and gemcitabine. Treatments with gemcitabine began 1 week after FTS treatment was started.

[3] = 50 mg/kg FTS oral daily from day 11, after 16 days of treatment (FIG. 14C)
[4] = 60 mg/kg FTS oral alone, from day 6 (FIG. 14D)

IC50 [1]: 30 to 75 µM
Compound: CC(C)=CCC/C(C)=C/CC/C(C)=C/CSc1ccccc1C(=O)O [FTS, S-farnesylthiosalicylic acid]
inhibition of tumor growth relative to control (tumor volume) ([2]; 10 mg/kg FTS i.p. daily from day 5, 24 days after implantation): 53.8% | inhibition in tumor growth [2, 3]: 53.7±19.1% | tumor weight (mean±SD) [2, 3]: 0.4 ± 0.19 g | inhibition in tumor growth [2, 4]: 46.2±16.3% | tumor weight (mean±SD) [2, 4]: 0.49 ± 0.15 g
